In EP4692062A1, “NOVEL AMIDE-BASED COMPOUND AND COMPOSITION COMPRISING SAME” (Amorepacific Corporation, priority 2023, dated 2024):

Tests used:
Assay type in all cases: biochemical
MMP-1 = biological target: T1, MMP-1 (Homo sapiens, UniProt P03956); assay: MMP1 Inhibitor Screening Assay Kit (ab139443), colorimetric thiopeptide substrate, OD412; details: for remaining activity at 0.5 µM / remaining activity at 10 µM: remaining enzyme activity; for remaining activity at 0.5 µM: untreated group = 100%, compound at 0.5 uM, n=2; for inhibition at 10 µM / remaining activity at 10 µM: T-05~20 at 10 uM; for inhibition at 10 µM: read-out: MMP-1 (%) (inhibitory efficacy, high concentration); for remaining activity at 10 µM: read-out: MMP-1 (%) (enzyme activity, high concentration)
T1 construct: purchased Abchem (so in the source)
T1 sequence (P03956 100-269 limits assumed): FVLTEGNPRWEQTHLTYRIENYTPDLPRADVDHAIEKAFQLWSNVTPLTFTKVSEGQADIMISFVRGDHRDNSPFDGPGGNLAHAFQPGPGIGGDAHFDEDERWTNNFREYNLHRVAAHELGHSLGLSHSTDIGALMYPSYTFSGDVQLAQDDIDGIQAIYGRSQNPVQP
Experimental: Enzyme activity (%) at the same concentration was compared with treatment with 0.5 µM MMP-1 activity and 50 nM MMP-2 and MMP-9 activity (n=2). Here, enzyme activity (%) refers to the enzyme activity (%) of the experimental group when the untreated group is considered to have 100% enzyme activity.
To evaluate the effect of the new compound on the enzyme activity, the color change was measured by following the provided protocol using a kit sold by Abchem as follows.
As MMP activity increases, the substrate is decomposed and the OD412 level increases. Therefore, the change in OD412 level (OD value) per minute was measured and the value was obtained according to the enzyme activity calculation formula below. […] (ε=13,600 M^-1cm^-1 above pH 6.0)
New compound enzyme activity(%) = (Vnew compound/Vuntreated group)*100 [formula] V = change in OD value per minute

MMP-2 [1] = biological target: T2, MMP-2 (Homo sapiens, UniProt P08253); assay: MMP2 Inhibitor Screening Assay Kit (ab139446), colorimetric thiopeptide substrate, OD412; details: remaining enzyme activity, untreated group = 100%; compound at 50 nM; n=2
T2 construct: purchased Abchem (so in the source)
T2 sequence (P08253 110-660): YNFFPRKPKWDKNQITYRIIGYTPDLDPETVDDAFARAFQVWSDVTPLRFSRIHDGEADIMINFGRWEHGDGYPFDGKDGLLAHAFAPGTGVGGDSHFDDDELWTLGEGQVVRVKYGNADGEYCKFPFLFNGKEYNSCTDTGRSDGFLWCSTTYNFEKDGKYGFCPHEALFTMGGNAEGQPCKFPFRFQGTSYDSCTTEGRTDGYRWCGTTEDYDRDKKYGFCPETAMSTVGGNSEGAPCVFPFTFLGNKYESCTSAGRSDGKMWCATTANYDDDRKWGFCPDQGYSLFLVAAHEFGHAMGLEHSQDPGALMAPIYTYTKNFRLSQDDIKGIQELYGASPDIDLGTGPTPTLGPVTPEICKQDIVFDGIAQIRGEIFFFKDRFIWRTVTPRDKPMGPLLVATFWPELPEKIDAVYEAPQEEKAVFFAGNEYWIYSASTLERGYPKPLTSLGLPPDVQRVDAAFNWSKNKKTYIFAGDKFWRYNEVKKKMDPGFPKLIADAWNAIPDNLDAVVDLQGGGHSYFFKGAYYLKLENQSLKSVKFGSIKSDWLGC
Experimental: Enzyme activity (%) at the same concentration was compared with treatment with 0.5 µM MMP-1 activity and 50 nM MMP-2 and MMP-9 activity (n=2). Here, enzyme activity (%) refers to the enzyme activity (%) of the experimental group when the untreated group is considered to have 100% enzyme activity. To evaluate the effect of the new compound on the enzyme activity, the color change was measured by following the provided protocol using a kit sold by Abchem as follows. […] Therefore, the change in OD412 level (OD value) per minute was measured and the value was obtained according to the enzyme activity calculation formula below. […] (ε=13,600 M^-1cm^-1 above pH 6.0) New compound enzyme activity(%) = (Vnew compound/Vuntreated group)*100 [formula] V = change in OD value per minute

MMP-9 = biological target: T3, MMP-9 (Homo sapiens, UniProt P14780); assay: MMP9 Inhibitor Screening Assay Kit (ab139448), colorimetric thiopeptide substrate, OD412; details: compound at 50 nM; for remaining activity at 0.05 µM: remaining enzyme activity, untreated group = 100%, n=2; for inhibition at 0.05 µM: read-out: MMP-9 (%) at 50 nM (inhibitory activity)
T3 construct: purchased Abchem (so in the source)
T3 sequence (P14780 94-707): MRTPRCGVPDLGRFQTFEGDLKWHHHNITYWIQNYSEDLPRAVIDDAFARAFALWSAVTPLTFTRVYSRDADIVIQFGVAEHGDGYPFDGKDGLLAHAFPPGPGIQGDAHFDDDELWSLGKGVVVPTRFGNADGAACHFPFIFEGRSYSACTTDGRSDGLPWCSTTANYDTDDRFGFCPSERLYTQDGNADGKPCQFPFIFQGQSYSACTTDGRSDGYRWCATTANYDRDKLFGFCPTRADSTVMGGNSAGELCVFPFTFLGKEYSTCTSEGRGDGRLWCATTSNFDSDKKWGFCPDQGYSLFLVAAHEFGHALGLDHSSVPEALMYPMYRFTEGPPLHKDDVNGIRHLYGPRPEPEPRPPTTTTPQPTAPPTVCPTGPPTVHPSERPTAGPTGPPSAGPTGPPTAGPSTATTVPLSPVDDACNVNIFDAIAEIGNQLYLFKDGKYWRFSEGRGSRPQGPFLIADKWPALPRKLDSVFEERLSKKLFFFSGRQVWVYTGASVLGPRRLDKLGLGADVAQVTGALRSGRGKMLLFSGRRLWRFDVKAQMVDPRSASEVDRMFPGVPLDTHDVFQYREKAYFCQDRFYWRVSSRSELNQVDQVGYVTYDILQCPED
Experimental: Enzyme activity (%) at the same concentration was compared with treatment with 0.5 µM MMP-1 activity and 50 nM MMP-2 and MMP-9 activity (n=2). Here, enzyme activity (%) refers to the enzyme activity (%) of the experimental group when the untreated group is considered to have 100% enzyme activity. To evaluate the effect of the new compound on the enzyme activity, the color change was measured by following the provided protocol using a kit sold by Abchem as follows. Enzyme activity was obtained by comparing absorbance per minute with the untreated group. • MMP1 Inhibitor Screening Assay Kit (ab139443) • MMP2 Inhibitor Screening Assay Kit (ab139446) • MMP9 Inhibitor Screening Assay Kit (ab139448) As MMP activity increases, the substrate is decomposed and the OD412 level increases. Therefore, the change in OD412 level (OD value) per minute was measured and the value was obtained according to the enzyme activity calculation formula below. Here, OD412 means optical density or absorbance at 412 nm. • Thiopeptide (Ac-PLG-[2-mercapto-4-methyl-pentanoyl]-LG-OC2H5) as a chromogenic substrate. • The MMP cleavage site peptide bond was replaced by the thioester bond of the thiopeptide. • Hydrolysis of this bond by MMP generates a sulfhydryl group, which reacts with DTNB [5,5'-dithiobis(2-nitrobenzoic acid), Ellman's reagent] to form 2-nitro-5-thiobenzoic acid. , which can be measured by its absorbance at 412 nm. (ε=13,600 M^-1cm^-1 above pH 6.0) New compound enzyme activity(%) = (Vnew compound/Vuntreated group)*100 [formula] V = change in OD value per minute

MMP-2 [2] = biological target: T2, MMP-2; assay: MMP2 Inhibitor Screening Assay Kit (ab139446), colorimetric thiopeptide substrate, OD412; details: T-05~20 at 10 uM; for inhibition at 10 µM: read-out: MMP-2 (%) (inhibitory efficacy, high concentration); for remaining activity at 10 µM: remaining enzyme activity, read-out: MMP-2 (%) (enzyme activity, high concentration)

SMILES | remaining activity at 0.5 µM (MMP-1) [%] | remaining activity at 0.05 µM (MMP-2 [1]) [%] | remaining activity at 0.05 µM (MMP-9) [%] | inhibition at 10 µM (MMP-1) [%] | remaining activity at 10 µM (MMP-1) [%] | inhibition at 10 µM (MMP-2 [2]) [%] | remaining activity at 10 µM (MMP-2 [2]) [%] | inhibition at 0.05 µM (MMP-9) [%]
O=C(NO)C1CCCCN1S(=O)(=O)c1ccccc1 (centres unmarked) [T-01, N-hydroxy-1-(phenylsulfonyl)piperidine-2-carboxamide] | 34.2 | 81.6 | 79.1 | – | – | – | – | –
O=C(NO)C1CCCCN1S(=O)(=O)c1ccc(-c2ccccc2)cc1 (centres unmarked) [T-02, 1-([1,1'-biphenyl]-4-ylsulfonyl)-N-hydroxypiperidine-2-carboxamide] | – | – | 41.9 | – | – | – | – | –
CCCCOc1ccc(S(=O)(=O)N2CCCCC2C(=O)NO)cc1 (centres unmarked) [T-04, 1-((4-butoxyphenyl)sulfonyl)-N-hydroxypiperidine-2-carboxamide] | – | – | 0 | – | – | – | – | –
Cc1cc(C)c(S(=O)(=O)N2CCCCC2C(=O)NO)c(C)c1 (centres unmarked) [T-05, N-hydroxy-1-(mesitylsulfonyl)piperidine-2-carboxamide] | 100 | 100 | 100 | 8.3 | 91.7 | 15.8 | 84.2 | –
CC(C)(C)c1ccc(S(=O)(=O)NC(Cc2ccccc2)C(=O)NO)cc1 (centres unmarked) [T-08, 2-((4-(tert-butyl)phenyl)sulfonamido)-N-hydroxy-3-phenylpropanamide] | 100 | 100 | 100 | 12.8 | 87.2 | 0 | 100 | –
Cc1cc(C)c(S(=O)(=O)NC(Cc2ccccc2)C(=O)NO)c(C)c1 (centres unmarked) [T-10, N-hydroxy-3-phenyl-2-((2,4,6-trimethylphenyl)sulfonamido)propanamide] | 100 | 95.6 | 100 | 0 | 100 | 15.5 | 84.5 | –
O=C(NO)C(Cc1ccccc1)NS(=O)(=O)c1ccc2ccccc2c1 (centres unmarked) [T-11, N-hydroxy-2-(naphthalene-2-sulfonamido)-3-phenylpropanamide] | 100 | 82.7 | 100 | 42.9 | 57.1 | 93.8 | 6.2 | –
CC(C)CC(NS(=O)(=O)c1ccc(-c2ccccc2)cc1)C(=O)NO (centres unmarked) [T-12, 2-([1,1'-biphenyl]-4-sulfonamido)-N-hydroxy-4-methylpentanamide] | – | – | 70.6 | – | – | – | – | –
CC(C)CC(NS(=O)(=O)c1ccc(C(C)(C)C)cc1)C(=O)NO (centres unmarked) [T-13, 2-((4-(tert-butyl)phenyl)sulfonamido)-N-hydroxy-4-methylpentanamide] | 100 | 100 | 100 | 0 | 100 | 71.9 | 28.1 | –
CCCCOc1ccc(S(=O)(=O)NC(CC(C)C)C(=O)NO)cc1 (centres unmarked) [T-14, 2-((4-butoxyphenyl)sulfonamido)-N-hydroxy-4-methylpentanamide] | 100 | 0 | 73.5 | – | – | – | – | 26.5
Cc1cc(C)c(S(=O)(=O)NC(CC(C)C)C(=O)NO)c(C)c1 (centres unmarked) [T-15, N-hydroxy-4-methyl-2-((2,4,6-trimethylphenyl)sulfonamido)pentanamide] | 100 | 100 | 100 | 0 | 100 | 34.8 | 65.2 | –
CCCCOc1ccc(S(=O)(=O)N2CCCC2C(=O)NO)cc1 (centres unmarked) [T-29, 1-((4-butoxyphenyl)sulfonyl)-N-hydroxypyrrolidine-2-carboxamide] | 100 | 18.9 | 50.2 | – | – | – | – | –

More lines, main results first:

remaining activity at 0.5 µM (MMP-1) [%] | remaining activity at 0.05 µM (MMP-2 [1]) [%] | remaining activity at 0.05 µM (MMP-9) [%] | inhibition at 10 µM (MMP-1) [%] | remaining activity at 10 µM (MMP-1) [%] | inhibition at 10 µM (MMP-2 [2]) [%] | remaining activity at 10 µM (MMP-2 [2]) [%] | SMILES | inhibition at 0.05 µM (MMP-9) [%]
100 | 99.9 | 100 | 0 | 100 | 0 | 100 | CC(C)C(NS(=O)(=O)c1ccc(C(C)(C)C)cc1)C(=O)NO (centres unmarked) [T-18, 2-((4-(tert-butyl)phenyl)sulfonamido)-N-hydroxy-3-methylbutanamide] | –
100 | 97.8 | 100 | 0 | 100 | 59.9 | 40.1 | Cc1cc(C)c(S(=O)(=O)NC(C(=O)NO)C(C)C)c(C)c1 (centres unmarked) [T-20, N-hydroxy-3-methyl-2-((2,4,6-trimethylphenyl)sulfonamido)butanamide] | 0
9.2 | 81.1 | 100 | – | – | – | – | O=C(NO)C1CCCCN1S(=O)(=O)c1ccc(F)cc1 (centres unmarked) [T-21, 1-((4-fluorophenyl)sulfonyl)-N-hydroxypiperidine-2-carboxamide] | –
78.4 | 57.7 | 99 | – | – | – | – | CCCc1ccc(S(=O)(=O)N2CCCCC2C(=O)NO)cc1 (centres unmarked) [T-24, N-hydroxy-1-((4-propylphenyl)sulfonyl)piperidine-2-carboxamide] | –
– | – | 19.9 | – | – | – | – | CC(=NO)c1ccc(S(=O)(=O)N2CCCCC2C(=O)NO)cc1 (centres unmarked) [T-35, N-hydroxy-1-((4-(1-(hydroxyimino)ethyl)phenyl)sulfonyl)piperidine-2-carboxamide] | –
98.2 | 100 | 97.4 | – | – | – | – | CC(C)CC(NS(=O)(=O)c1ccccc1)C(=O)NO (centres unmarked) [T-36, N-hydroxy-4-methyl-2-(phenylsulfonamido)pentanamide] | –
100 | 100 | 100 | – | – | – | – | CC(=O)Nc1ccc(S(=O)(=O)N2CCCC2C(=O)NO)cc1 (centres unmarked) [T-40, 1-((4-acetamidophenyl)sulfonyl)-N-hydroxypyrrolidine-2-carboxamide] | –
